Experimental findings from PubChem BioAssay (NCI) are described below.

Among the test systems are SF-295 CNS; SNB-75 CNS; MDA-MB-435; HOP-62 NSCLC; OVCAR-3 ovarian; MOLT-4 leukemia; SNB-19 CNS; HOP-92 NSCLC; LOX IMVI melanoma; U251 CNS.
What all share (experiment): NCI tumour cell line growth inhibition, 48 h

Values joined by “and” are separate entries in the source; they are usually repeats but may differ in a detail not shown here. Equal values may be shown once.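 Five concentrations, 48 hours, 96-well plates. Here, GI50 denotes the concentration required for 50% inhibition of growth. TGI: concentration producing complete growth inhibition.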 Where only a bound is given, the exact number is not on record here.

As to `Oc1ccc(Cl)cc1C=Nc1cnc2ccccc2c1`, the TGI in the assay with SF-295 CNS is above 100 µM; in the assay with SNB-75 CNS it was above 87.6 µM; with MDA-MB-435, above 100 µM; in the assay on HOP-62 NSCLC, above 100 µM; with OVCAR-3 ovarian it was above 59.8 µM; in the assay with MOLT-4 leukemia it was 47.2 µM. The TGI in the assay on SNB-19 CNS is above 100 µM; in the assay on HOP-92 NSCLC, above 100 µM; in the assay with LOX IMVI melanoma, above 100 µM; in the assay on U251 CNS, above 70.6 µM.

For the compound `O=C1NC(=NCCc2ccc(Cl)cc2)S/C1=C\c1ccc2ncccc2c1`, the GI50 was 24.4 µM with SF-295 CNS; 6.77 µM in the assay on SNB-75 CNS; 10 µM in the assay with MDA-MB-435; 14.3 µM with HOP-62 NSCLC; above 25 µM with OVCAR-3 ovarian; 18.8 µM in the assay with MOLT-4 leukemia. Also, the GI50 in the assay on SNB-19 CNS is above 25 µM; with HOP-92 NSCLC, 7.32 µM; with LOX IMVI melanoma, above 20.9 µM; in the assay with U251 CNS, 20.8 µM. For the same compound, the TGI in the assay on SF-295 CNS was above 25 µM; in the assay with SNB-75 CNS, above 21.6 µM; with MDA-MB-435, above 25 µM; in the assay with HOP-62 NSCLC, above 25 µM; in the assay with OVCAR-3 ovarian it was above 25 µM; in the assay with MOLT-4 leukemia it was above 25 µM. The TGI with SNB-19 CNS, with HOP-92 NSCLC, with LOX IMVI melanoma and in the assay on U251 CNS was above 25 µM in each case.

As to `CCCCNC(c1ccc(Cl)cc1)C(O)c1ccc(Cl)cc1` (stereo not given), the GI50 is 1.02 µM in the assay on SF-295 CNS; 1.93 µM in the assay with SNB-75 CNS; 1.61 µM with MDA-MB-435; 2.19 µM with HOP-62 NSCLC; 1.98 µM in the assay with OVCAR-3 ovarian; 1.67 µM in the assay with MOLT-4 leukemia. The GI50 is 2.09 µM in the assay on SNB-19 CNS, 1.13 µM in the assay on HOP-92 NSCLC, 1.39 µM in the assay on LOX IMVI melanoma and 1.75 µM with U251 CNS. Besides, the TGI in the assay on SF-295 CNS stood at 2.44 µM; in the assay on SNB-75 CNS it was 11.4 µM; in the assay with MDA-MB-435 it was 3.57 µM; in the assay on HOP-62 NSCLC, 9.71 µM; in the assay with OVCAR-3 ovarian, 4.83 µM; in the assay with MOLT-4 leukemia, 6.67 µM. In addition, the TGI with SNB-19 CNS amounted to 5.74 µM; in the assay with HOP-92 NSCLC, 5.16 µM; in the assay with LOX IMVI melanoma it was 2.7 µM; in the assay on U251 CNS, 3.65 µM.

`O=C1NC(O)c2cc3ccccc3cc2O1` (stereo not given): the TGI is above 100 µM in the assay with SF-295 CNS; above 100 µM in the assay with SNB-75 CNS; above 100 µM in the assay on MDA-MB-435; above 100 µM in the assay on HOP-62 NSCLC; 88.5 µM with OVCAR-3 ovarian; above 100 µM with MOLT-4 leukemia. The TGI was above 100 µM with SNB-19 CNS, 90.7 µM in the assay on HOP-92 NSCLC, 95.3 µM in the assay on LOX IMVI melanoma and 87.3 µM with U251 CNS.

In the case of `O=c1[nH]c(C2CCCN2)nc2c1oc1ccc(Cl)cc12` (stereo not given), the GI50 is above 72.3 µM with SF-295 CNS; 17.9 µM with SNB-75 CNS; above 100 µM in the assay with MDA-MB-435; 49.9 µM in the assay on HOP-62 NSCLC; above 100 µM in the assay with OVCAR-3 ovarian; above 100 µM in the assay on MOLT-4 leukemia. Further, the GI50 is 68.1 µM with SNB-19 CNS, 12.4 µM with HOP-92 NSCLC, 68 µM in the assay on LOX IMVI melanoma and 36.2 µM in the assay on U251 CNS. Further, the TGI in the assay with SF-295 CNS, in the assay on SNB-75 CNS, in the assay on MDA-MB-435, with HOP-62 NSCLC, in the assay on OVCAR-3 ovarian and in the assay on MOLT-4 leukemia was above 100 µM each time. Further, the TGI is above 100 µM in the assay with SNB-19 CNS, above 91.1 µM with HOP-92 NSCLC, above 100 µM in the assay on LOX IMVI melanoma and above 100 µM in the assay with U251 CNS.

On to `COc1ccc(-n2c(=S)sc3c(Cl)nc(C)nc32)c(OC)c1`, for which the GI50 was 7.06 µM in the assay on SF-295 CNS; 1.97 µM with SNB-75 CNS; 2.14 µM in the assay on MDA-MB-435; 2.57 µM in the assay with HOP-62 NSCLC; 1.8 µM with OVCAR-3 ovarian; 2.12 µM in the assay with MOLT-4 leukemia. In addition, the GI50 was 2.4 µM in the assay on SNB-19 CNS, 2.06 µM with HOP-92 NSCLC, 1.71 µM in the assay on LOX IMVI melanoma and 1.91 µM in the assay on U251 CNS. Besides, the TGI in the assay with SF-295 CNS was 20.1 µM; in the assay on SNB-75 CNS, 4.26 µM; with MDA-MB-435 it was 3.93 µM; in the assay with HOP-62 NSCLC, 7.68 µM; with OVCAR-3 ovarian, 3.26 µM; in the assay on MOLT-4 leukemia, 5.48 µM. Besides, the TGI came to 5.42 µM with SNB-19 CNS, 8.46 µM in the assay on HOP-92 NSCLC, 3.19 µM in the assay with LOX IMVI melanoma and 3.65 µM in the assay with U251 CNS.

On to `[N-]=[N+]=CC(=O)CCC(N)C(=O)O` (stereo not given), for which the TGI with SF-295 CNS is above 250 µM; in the assay on SNB-75 CNS it was 191 µM; in the assay on MDA-MB-435, above 250 µM; with HOP-62 NSCLC, 43.2 µM; with OVCAR-3 ovarian, above 244 µM; in the assay on SNB-19 CNS, above 250 µM. Moreover, the TGI was 69.3 µM with HOP-92 NSCLC, 167 µM in the assay on LOX IMVI melanoma and above 250 µM in the assay with U251 CNS. Also, the GI50 is 39.4 µM with SNB-75 CNS; 7.2 µM in the assay with MDA-MB-435; 1.45 µM in the assay with OVCAR-3 ovarian; 0.468 µM with MOLT-4 leukemia; 10.1 µM in the assay on SNB-19 CNS; 0.793 µM in the assay on LOX IMVI melanoma. Moreover, in the assay on U251 CNS, the GI50 is 6.59 µM.

In the case of `C=C(Br)CN=CN(C)C`, the TGI in the assay with SF-295 CNS, with SNB-75 CNS, with MDA-MB-435, with HOP-62 NSCLC, in the assay with OVCAR-3 ovarian and in the assay with MOLT-4 leukemia was above 100 µM in each case. The TGI in the assay on SNB-19 CNS, in the assay on HOP-92 NSCLC, in the assay on LOX IMVI melanoma and in the assay on U251 CNS was above 100 µM throughout.

`C[C@@H]1C[C@@H]([C@H](O)CC2CC(=O)NC(=O)C2)C(=O)[C@@H](C)C1`: the GI50 was 0.176 µM with SF-295 CNS; 0.333 µM with SNB-75 CNS; 0.233 µM in the assay with MDA-MB-435; 0.26 µM in the assay with HOP-62 NSCLC; 0.675 µM in the assay on OVCAR-3 ovarian; 0.139 µM in the assay with MOLT-4 leukemia. Besides, the GI50 in the assay with SNB-19 CNS is 0.282 µM; in the assay with HOP-92 NSCLC, 0.178 µM; in the assay with LOX IMVI melanoma, 0.258 µM; with U251 CNS, 0.237 µM. Besides, the TGI in the assay on SF-295 CNS was 1.19 µM and 1.69 µM; in the assay on SNB-75 CNS it was 4.93 µM and 1.43 µM; in the assay on MDA-MB-435 it was 4.09 µM; with HOP-62 NSCLC, 3.63 µM and 1.67 µM; with MOLT-4 leukemia, 2.06 µM and 0.518 µM; with SNB-19 CNS, 15.8 µM and > 94.6 µM. Moreover, the TGI was 7.57 µM and 2.05 µM in the assay with HOP-92 NSCLC; 3.53 µM and 0.816 µM in the assay with LOX IMVI melanoma; 2.67 µM and 12.6 µM in the assay on U251 CNS.
